Reference: paper PMC6713354, “Structural and biochemical studies of an NB-ARC domain from a plant NLR immune receptor” (PLoS ONE, 2019)

Experiments:
[1] = target: T1, NRC1 NB-ARC domain (Solanum lycopersicum, UniProt A1X877); test: X-ray crystal structure, […] A (native); SeMet SAD map at […] A; conditions: co-purified ligand; nucleotide-binding pocket; E. coli-expressed protein; crystals at pH 4.5
T1 construct: NB-ARC domain, residues 150-494; E. coli Lemo21(DE3) (pOPIN-S3C, 6xHis-SUMO) or Sf9 cells (pOPIN-F, 6xHis); N-terminal tag cut with 3C protease; 346 residues in expressed construct; about 40 kDa monomer
T1 sequence (A1X877 entry or part of it): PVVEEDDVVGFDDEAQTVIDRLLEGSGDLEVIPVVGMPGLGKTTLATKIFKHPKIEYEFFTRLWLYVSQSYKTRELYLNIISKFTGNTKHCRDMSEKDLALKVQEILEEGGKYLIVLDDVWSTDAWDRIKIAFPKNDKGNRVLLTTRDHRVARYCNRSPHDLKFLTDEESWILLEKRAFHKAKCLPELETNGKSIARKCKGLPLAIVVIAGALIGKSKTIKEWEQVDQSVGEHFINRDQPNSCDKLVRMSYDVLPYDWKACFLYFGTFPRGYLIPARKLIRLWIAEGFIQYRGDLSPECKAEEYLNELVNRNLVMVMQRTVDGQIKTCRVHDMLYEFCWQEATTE

[2] = target: T2, NRC1 NB-ARC domain (Solanum lycopersicum, UniProt A1X877, D268N); test: luciferase assay of nucleotide released by boiling, ADP converted to ATP with pyruvate kinase; format: binding; conditions: co-purified ligand, no ADP added; protein from Sf9 cells; Walker B mutant; no ATP detected
T2 construct: NB-ARC domain, residues 150-494; E. coli Lemo21(DE3) (pOPIN-S3C, 6xHis-SUMO) or Sf9 cells (pOPIN-F, 6xHis); N-terminal tag cut with 3C protease; 346 residues in expressed construct; about 40 kDa monomer
T2 sequence (A1X877 entry or part of it D268N): as the sequence (A1X877 entry or part of it) above, with D119N counted along it

[3] = target: T1, NRC1 NB-ARC domain; test: as above; format: binding; conditions: co-purified ligand, no ADP added; protein from E. coli and from Sf9 cells; no ATP detected

Compound: Nc1ncnc2c1ncn2[C@@H]1O[C@H](COP(=O)(O)OP(=O)(O)O)[C@@H](O)[C@H]1O [ADP]
- X-ray crystal structure, 2.5 A (native); SeMet SAD map at 3.03 A [1]: allowed us to unambiguously position a molecule of ADP, and the side-chains of interacting residues
- % ADP occupancy [2]: NRC1 NB-ARC^D268N, a mutant designed to abolish ATPase activity, also co-purified with ADP
- % ADP occupancy [3]: all three NRC1 NB-ARC proteins co-purified with ADP with high occupancy
